Laboratory results taken from article PMC7226613, “Antikinetoplastid Activity of Indolocarbazoles from Streptomyces sanyensis” (Biomolecules, 2020).
Like-named read-outs stand apart in the source and are kept apart here.

Tests used:
[1] = system: epimastigote of T. cruzi (Y strain); test: Trypanocidal capacity assay, epimastigotes (AlamarBlue); details: 72 h; for IC50: Trypanosoma cruzi, read-out: T. cruzi IC50; for T. cruzi IC50: epimastigotes, mean ± SD
Method: Epimastigotes were cultured in Liver Infusion Tryptose (LIT) medium supplemented with 10% FBS at 26 °C and were grown to the log phase for use in further experiments.
The assay was carried out in vitro against epimastigote stage of T. cruzi. […] Benznidazole (Sigma-Aldrich, Madrid, Spain) was used as a reference drug.
(§3) All experiments were performed three times, in duplicates for each concentration tested, and the mean values were also calculated. A Tukey test was used for analysis of the data.

[2] = Cytotoxicity assay (AlamarBlue); details: mouse
Method: (§4) After 24 h, cell viability was determined using AlamarBlue® method [24]. Miltefosine (Cayman Chemicals, Vitro SA, Madrid, Spain) and benznidazole (Sigma-Aldrich, Madrid, Spain) were used as reference drugs.
as §3

[3] = system: macrophage J774A.1 cell line; test: Cytotoxicity assay (AlamarBlue); details: 24 h, AlamarBlue, mean ± SD
Method: as §4, §3

[4] = system: promastigotes of L. donovani (MHOM/IN/90/GE1F8R); test: Leishmanicidal capacity assay, promastigotes (AlamarBlue); assay type: cell-based, Leishmania donovani; details: 72 h, mean ± SD; for IC50: Leishmania donovani
L. amazonensis = test: Plasma membrane permeability (SYTOX Green); assay type: cell-based, Leishmania amazonensis; details: IC90, 24 h
Method: (§1) The SYTOX® Green assay was performed to detect the membrane permeability alterations in parasites. […] SYTOX® Green was added at a final concentration of 1 μM (Molecular Probes).

[5] = system: promastigotes of L. amazonensis (MHOM/BR/77/LTB0016); test: Leishmanicidal capacity assay, promastigotes (AlamarBlue); assay type: cell-based, Leishmania amazonensis; details: for IC50 / L. amazonensis IC50: promastigotes, 72 h, mean ± SD
[6] = system: L. amazonensis amastigotes; test: Anti-amastigote activity, intra-macrophage stage in J774A.1; details: for Selectivity Index (CC50/IC50): CC50 J774A.1 / IC50 L. amazonensis amastigotes; for IC50: Leishmania amazonensis, J774.A1, read-out: L. Amazonensis Amastigotes IC50
Method: The anti-amastigote activity was measured according to Jain et al. [26]. […] After one hour of incubation, 100 µL of stationary phase promastigotes of 7-day-old culture was added in a 10:1 ratio (2 × 10^6/mL) and the plates were re-incubated at 37 °C for 24 h to achieve a maximum infection. […] Separately, and in a 96-deep well plate, a serial dilution of the selected compounds was made with the same medium and then 50 μL of each dilution was added to each well. The plates were incubated at 37 °C, 5% CO2 for 24 h. After this incubation, we removed the medium from each well and 30 μL of Schneider medium containing 0.05% SDS was added to each well. The plate was shacked for 30 s and 170 μL of Schneider medium were added to each well. AlamarBlue® at 10% was added into each well and incubated at 26 °C for 72 h. […] Miltefosine (Cayman Chemicals, Vitro SA, Madrid, Spain) was used as reference drug.
as §3

[7] = system: promastigotes of L. donovani; test: Microscopic morphology of treated promastigotes; assay type: cell-based, Leishmania donovani; details: 10 µM; flagellar pocket increased, invagination of plasma membrane
L. donovani = test: Plasma membrane permeability (SYTOX Green); assay type: cell-based, Leishmania donovani; details: IC90, 24 h
Method: as §1

[8] = system: L. donovani promastigotes; test: Mitochondrial membrane potential (JC-1); assay type: cell-based, Leishmania donovani; details: IC90, 24 h
Method: (§2) The decrease in the mitochondrial membrane potential was detected using a JC-1 Mitochondrial Membrane, Potential Assay Kit, Cayman Chemical. […] The pellet was resuspended in JC-1 buffer. After that, 100 µL of each treated culture was added to a black 96-well plate (PerkinElmer) and 10 µL of JC-1 was added, and the plate was incubated for half an hour at 26 °C. Green and red fluorescence intensity was measured using an Enspire microplate reader (PerkinElmer, Massachusetts, USA) for 30 min. In addition, the depolarization of the mitochondrial membrane potential was confirmed by microscopic observation using EVOS FL Cell Imaging System AMF4300, Life Technologies, USA.

T. cruzi = test: Plasma membrane permeability (SYTOX Green); assay type: cell-based, Trypanosoma cruzi; details: IC90, 24 h
Method: as §1

T. cruzi epimastigotes = test: Mitochondrial membrane potential (JC-1); assay type: cell-based, Trypanosoma cruzi; details: IC90, 24 h
Method: as §2

[9] = system: L. amazonensis promastigotes; test: Mitochondrial membrane potential (JC-1); assay type: cell-based, Leishmania amazonensis; details: IC90 (8.36 µM), 24 h
Method: as §2

protein kinase C (PKC) = details: cited from earlier work
protein kinase A (PKA) = details: cited from earlier work
phosphorylase kinase = details: cited from earlier work
[10] = system: macrophage J774A.1 cell line
Method: as §4, §3

in vitro = details: mouse
Method: as §4, §3

Question: With O=C(Cn1ccnc1[N+](=O)[O-])NCc1ccccc1 [Benznidazole] as the compound, how does the IC50 [1] read?
Answer: 6.94 ± 1.94 µM

Question: And the CC50 at 24 h ([2]; J774A.1 macrophage cell line)?
Answer: 400 ± 4 µM

Question: With CN[C@@H]1C[C@H]2O[C@@](C)([C@@H]1OC)n1c3ccccc3c3c4c(c5c6ccccc6n2c5c31)C(=O)NC4 [Compound 1, staurosporine] as the compound, how does the IC50 [1] read?
Answer: 3.63 ± 0.77 µM

Question: What about the CC50 ([3]; read-out: Macrophage J774A.1 CC50) of the same compound?
Answer: 8.74 ± 0.72 µM

Question: With CN[C@@H]1C[C@H]2O[C@@](C)([C@@H]1OC)n1c3ccccc3c3c4c(c5c6ccccc6n2c5c31)C(=O)NC4=O [Compound 2, 7-oxostaurosporine] as the compound, how does the IC50 [4] read?
Answer: 0.56 ± 0.06 µM

Question: What about the cytoplasmic membrane permeability (L. amazonensis) of the same compound?
Answer: does not seem to be permeable

Question: And the IC50 ([5]; Leishmania amazonensis)?
Answer: 3.58 ± 1.1 µM

Question: And the IC90 ([5]; Leishmania amazonensis, read-out: IC90 concentration, L. amazonensis promastigotes)?
Answer: 8.36 µM

Question: What about the “Selectivity Index (CC50/IC50)” value [6] of the same compound?
Answer: 52

Question: What about the IC50 [6] of the same compound?
Answer: 100 nM

Question: What about the IC50 [1] of the same compound?
Answer: 1.58 ± 0.52 µM

Question: What about the CC50 at 24 h [2] of the same compound?
Answer: 5.2 ± 1.75 µM

Question: And the “morphological changes of parasites” value [7]?
Answer: morphological changes

Question: What about the cytoplasmic membrane permeability (L. donovani) of the same compound?
Answer: remarkable membrane alteration

Question: And the “effect on mitochondrial membrane potential (ΔΨm)” value (“effect … (ΔΨm)” for short) [8]?
Answer: did not observe any change

Question: And the cytoplasmic membrane permeability (T. cruzi)?
Answer: remarkable membrane alteration

Question: And the “effect … (ΔΨm)” value (T. cruzi epimastigotes)?
Answer: did not observe any change

Question: And the “effect … (ΔΨm)” value [9]?
Answer: intense effect

Question: What does the source list for CO[C@@H]1C(=O)C[C@H]2O[C@]1(C)n1c3ccccc3c3c4c(c5c6ccccc6n2c5c31)C(=O)NC4 [Compound 3, 4′-demethylamino-4′-oxostaurosporine]?
Answer: IC50 [4]: > 40 µM; IC50 ([5]; Leishmania amazonensis): 17.1 ± 4.78 µM; IC50 [6]: 2030 ± 270 nM; IC50 [1]: 17.1 ± 1.64 µM; Macrophage J774A.1 CC50 [3]: low toxicity; CC50 at 24 h ([2]; J774A.1 macrophage cell line): > 40 µM

Question: With COC1=C(C)O[C@@H]2C[C@@]1(OC)n1c3ccccc3c3c4c(c5c6ccccc6n2c5c31)C(=O)NC4 [Compound 4, streptocarbazole B] as the compound, how does the IC50 [4] read?
Answer: > 40 µM

Question: And the IC50 ([5]; Leishmania amazonensis)?
Answer: 10.4 ± 0.21 µM

Question: And the IC50 [6]?
Answer: 2470 ± 90 nM

Question: What about the IC50 [1] of the same compound?
Answer: 12.5 ± 2.06 µM

Question: What about the “Macrophage J774A.1 CC50” value [3] of the same compound?
Answer: low toxicity

Question: And the CC50 at 24 h ([2]; J774A.1 macrophage cell line)?
Answer: > 40 µM

Question: What does the source list for CO[C@H]1[C@H](O)[C@@H](O)[C@H](n2c3c(Cl)cccc3c3c4c(c5c6cccc(Cl)c6[nH]c5c32)C(=O)NC4=O)O[C@@H]1CO [Compound 5, rebeccamycin]?
Answer: L. donovani IC50 [4]: completely inactive; IC50 [4]: > 40 µM; IC50 ([5]; Leishmania amazonensis): > 40 µM; L. amazonensis IC50 [5]: completely inactive; IC50 [1]: > 40 µM; T. cruzi IC50 [1]: completely inactive; CC50 at 24 h ([2]; J774A.1 macrophage cell line): 1.42 ± 0.19 µM; inhibitory effect on PKC (protein kinase C (PKC)): no inhibitory effect

Question: With COC(=O)[C@@]1(O)C[C@H]2O[C@]1(C)n1c3ccccc3c3c4c(c5c6ccccc6n2c5c31)C(=O)NC4 [Compound 6, K252a] as the compound, how does the IC50 [4] read?
Answer: 8.09 ± 1.12 µM

Question: What about the IC50 ([5]; Leishmania amazonensis) of the same compound?
Answer: 5.9 ± 0.96 µM

Question: And the IC50 [1]?
Answer: 4 ± 0.24 µM

Question: And the CC50 at 24 h [2]?
Answer: 1.07 ± 0.21 µM

Question: What about the IC50 (protein kinase A (PKA)) of the same compound?
Answer: 140 nM

Question: And the IC50 (phosphorylase kinase)?
Answer: 1.7 nM

Question: For C[C@]12O[C@H](C[C@]1(O)C(=O)O)n1c3ccccc3c3c4c(c5c6ccccc6n2c5c31)CNC4=O [Compound 7, K252b], which IC50 [4] is on record?
Answer: 4.45 ± 0.71 µM

Question: What about the IC50 ([5]; Leishmania amazonensis) of the same compound?
Answer: 20.6 ± 4.5 µM

Question: What about the IC50 [1] of the same compound?
Answer: 7.41 ± 0.93 µM

Question: What about the “Macrophage J774A.1 CC50” value [10] of the same compound?
Answer: low toxicity

Question: What about the CC50 at 24 h (in vitro) of the same compound?
Answer: > 40 µM

Question: With O=C1NCc2c1c1c3ccccc3[nH]c1c1[nH]c3ccccc3c21 [Compound 8, K252c] as the compound, how does the “L. donovani IC50” value [4] read?
Answer: completely inactive

Question: What about the IC50 [4] of the same compound?
Answer: > 40 µM

Question: What about the IC50 ([5]; Leishmania amazonensis) of the same compound?
Answer: > 40 µM

Question: And the “L. amazonensis IC50” value [5]?
Answer: completely inactive

Question: And the IC50 [1]?
Answer: > 40 µM

Question: And the “T. cruzi IC50” value [1]?
Answer: completely inactive

Question: What about the “Macrophage J774A.1 CC50” value [3] of the same compound?
Answer: low toxicity

Question: What about the CC50 at 24 h ([2]; J774A.1 macrophage cell line) of the same compound?
Answer: 35.4 ± 2.47 µM

Question: With O=C1NC(=O)c2c1c1c3ccccc3[nH]c1c1[nH]c3ccccc3c21 [Compound 9, arcyriaflavin A] as the compound, how does the “L. donovani IC50” value [4] read?
Answer: completely inactive

Question: And the IC50 [4]?
Answer: > 40 µM

Question: What about the IC50 ([5]; Leishmania amazonensis) of the same compound?
Answer: > 40 µM

Question: And the “L. amazonensis IC50” value [5]?
Answer: completely inactive

Question: What about the IC50 [1] of the same compound?
Answer: > 40 µM

Question: What about the “T. cruzi IC50” value [1] of the same compound?
Answer: completely inactive

Question: And the “Macrophage J774A.1 CC50” value [10]?
Answer: low toxicity

Question: What about the CC50 at 24 h (in vitro) of the same compound?
Answer: > 40 µM

Question: Which IC50 [4] does the source give for CCCCCCCCCCCCCCCCOP(=O)([O-])OCC[N+](C)(C)C [Miltefosine] here?
Answer: 3.32 ± 0.27 µM

Question: What about the “Selectivity Index (CC50/IC50)” value [6] of the same compound?
Answer: 23

Question: What about the CC50 at 24 h ([2]; J774A.1 macrophage cell line) of the same compound?
Answer: 72.2 ± 3.06 µM
